Data: PMC4916434, “Evaluation of the inhibition potential of plumbagin against cytochrome P450 using LC-MS/MS and cocktail approach” (Scientific Reports, 2016)

Tests used:
[1] = target: T1, CYP2C11 (Rattus norvegicus, UniProt P08683); format: in vitro ADME
T1 construct: consisting of pooled HLMs (0.5 mg/ml) or RLMs (1 mg/ml) and an NADPH-regenerating system; from tissue; host or cells: rat liver microsomes prepared in house
T1 sequence (P08683 1-500): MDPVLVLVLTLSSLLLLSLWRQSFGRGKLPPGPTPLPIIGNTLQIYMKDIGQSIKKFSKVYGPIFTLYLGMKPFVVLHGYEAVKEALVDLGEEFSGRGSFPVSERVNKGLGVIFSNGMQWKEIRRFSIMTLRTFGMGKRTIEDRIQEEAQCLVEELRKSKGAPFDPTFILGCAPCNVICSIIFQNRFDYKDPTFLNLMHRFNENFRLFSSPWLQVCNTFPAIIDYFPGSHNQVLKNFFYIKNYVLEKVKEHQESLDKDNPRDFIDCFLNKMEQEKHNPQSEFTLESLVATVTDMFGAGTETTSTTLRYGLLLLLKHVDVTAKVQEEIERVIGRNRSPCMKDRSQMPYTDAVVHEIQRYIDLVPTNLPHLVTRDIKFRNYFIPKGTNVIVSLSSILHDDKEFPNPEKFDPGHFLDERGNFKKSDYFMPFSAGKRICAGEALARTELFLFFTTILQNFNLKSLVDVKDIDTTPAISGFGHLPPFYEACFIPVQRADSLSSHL
Procedure: (§1) In this study, the rats were fasted overnight and killed by cervical dislocation before removal of the liver. The liver was excised, rinsed with ice-cold saline (0.9% NaCl w/v), weighed and homogenized in a […] Tris/KCl buffer (pH 7.4). Subsequently, the homogenate was centrifuged at 10,000 × g at 4 °C for 30 min. The supernatant was then centrifuged at 105,000 × g at 4 °C for 60 min. The pellet was reconstituted with […] Tris/KCl buffer (pH 7.4) and stored at −150 °C until use. The protein concentration of the liver microsomes was determined by a protein quantitative assay using bicinchoninic acid[22].
(§2) Microsomal incubation was carried out at 37 °C in a mixture of 200 μl in 0.05 M Tris/HCl buffer (pH 7.4) consisting of pooled HLMs (0.5 mg/ml) or RLMs (1 mg/ml) and an NADPH-regenerating system including MgCl2 (5 mM), G6P (10 mM), G6PDH (0.4 U/ml) and NADP (1 mM). Substrates were added into the incubation mixture and obtained the final concentrations (10 μM phenacetin for CYP1A2, 20 μM bupropion for CYP2B1/6, 20 μM tolbutamide for CYP2C9/11, 5 μM dextromethorphan for CYP2D1/6, 20 μM chlorzoxazone for CYP2E1 and 10 μM midazolam for CYP3A2/4), which were close to Km respectively. The proportion of organic solvent was not higher than 1% (v/v) in the incubation mixture. After pre-incubation for 5 min, the reaction was initiated by addition of NADP. Incubations were performed for 20 min, stopped by adding 200 μl ice-cold acetonitrile. And then 20 μl internal standard solution was added (3-acetamidophenol 2 μg/ml, chlorpropamide 2 μg/ml and mebendazole 2 μg/ml). The solution was mixed thoroughly for 3 min and centrifuged for 10 min at 16,000 × g at 4 °C. The supernatant (60 μl) was transferred to autosampler vials, and 2 μl was injected into LC-MS/MS system.
(§3) The IC50 (concentration of inhibitor to cause 50% inhibition of original enzyme activity) values were determined with the same incubation condition above. The specific concentrations of plumbagin were ranged from 0.1 μM to 50 μM. The IC50 values were calculated by plotting relative activities over the logarithm of plumbagin concentrations using GraphPad Prism 5.0 (GraphPad software Inc., CA, USA).
(§4) Cocktail probe substrates were then added and incubated for 20 min. Reactions were stopped with 200 μl ice-cold acetonitrile. The samples were treated according to the microsomal incubation method and then injected into LC-MS/MS for analysis.
(§5) Kinetic studies were performed for determining the types of inhibition on CYP by plumbagin. Pooled HLMs (0.5 mg/ml) or RLMs (1 mg/ml) with plumbagin (1 μM, 2 μM, 5 μM and 10 μM) were incubated in 0.05 M Tris/HCl buffer (pH 7.4) for 20 min at 37 °C. A series of concentrations for cocktail probe substrates were used: 2.5–20 μM phenacetin for CYP1A2; 5–40 μM bupropion for CYP2B1/6; 5–40 μM tolbutamide for CYP2C9/11; 1.25–10 μM dextromethorphan for CYP2D1/6; 5–40 μM chlorzoxazone for CYP2E1; 2.5–80 μM midazolam for CYP3A2; and 0.625–5 μM midazolam for CYP3A4. Enzyme kinetics as well as statistical analysis were performed using GraphPad Prism 5.0.
(§6) All data were presented as mean ± SD. The IC50 values were fitted by non-linear regression analysis using GraphPad Prism 5.0. The kinetic parameters were obtained by fitting velocity data to kinetic models (Michaelis-Menten) using GraphPad Prism 5.0. The Lineweaver-Burk Plot (the reciprocal of reaction velocities versus the reciprocal of substrates concentrations) was used to determine the quality of fit to a specific inhibition model. The inhibition constant (Ki) was obtained by a secondary plot using the slopes of the primary Lineweaver-Burk Plot (Km/Vmax versus inhibitor concentrations). αKi was obtained from a secondary plot using the y-intercepts of the Lineweaver-Burk plot (1/Vmax versus inhibitor concentrations). All results were analyzed in quadruplicate. One-way analysis of variance was used to estimate the significance of differences. […]

[2] = target: T2, CYP2D1 (Rattus norvegicus, UniProt P10633); format: in vitro ADME
T2 construct: consisting of pooled HLMs (0.5 mg/ml) or RLMs (1 mg/ml) and an NADPH-regenerating system; from tissue; host or cells: rat liver microsomes prepared in house
T2 sequence (P10633 1-504): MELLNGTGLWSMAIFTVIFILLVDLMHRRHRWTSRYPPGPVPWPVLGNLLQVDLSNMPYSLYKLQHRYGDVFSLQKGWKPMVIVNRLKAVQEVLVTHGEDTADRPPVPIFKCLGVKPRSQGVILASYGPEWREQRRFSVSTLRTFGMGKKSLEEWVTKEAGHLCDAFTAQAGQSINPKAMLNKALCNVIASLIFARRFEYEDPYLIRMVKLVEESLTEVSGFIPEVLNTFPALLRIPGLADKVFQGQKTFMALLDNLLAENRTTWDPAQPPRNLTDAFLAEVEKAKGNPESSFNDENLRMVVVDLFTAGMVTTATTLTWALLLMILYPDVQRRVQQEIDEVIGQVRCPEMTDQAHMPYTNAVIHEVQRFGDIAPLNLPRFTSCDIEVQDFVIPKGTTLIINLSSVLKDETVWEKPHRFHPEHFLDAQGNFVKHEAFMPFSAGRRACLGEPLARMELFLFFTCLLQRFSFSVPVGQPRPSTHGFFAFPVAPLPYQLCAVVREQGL
Procedure: as §1, §2, §3, §4, §5, §6

SMILES: CC1=CC(=O)c2c(O)cccc2C1=O [plumbagin, 5-hydroxy-2-methyl-1,4-naphthoquinone]
- IC50 [1]: 3.85 µM
- Ki [1]: 7.85 µM
- Type of inhibition [1]: competitive
- IC50 [2]: 6.17 µM
- Ki [2]: 9.49 µM
- Type of inhibition [2]: mixed-type
- α [2]: 0.69
- αKi [2]: 13.79 µM
